According to PMC509409, “Recognition and Accommodation at the Androgen Receptor Coactivator Binding Interface” (PLoS Biology, 2004):
Where a SMILES comes first, the peptide text is derived from it. The star is where a group is joined. Biotin = O=C1N[C@H]2[C@H](CS[C@H]2CCCCC(=O)*)N1

Legend:
AR LBD [1] = target: T1, AR LBD (Pan troglodytes, UniProt O97775); test: Surface plasmon resonance (Biacore 2000), peptide binding to AR LBD; format: chimp (100% identity to the human form in protein sequence); conditions: for ka1 × 10^-4: association rate, biotinylated peptide immobilised (approx. 250 RU), AR LBD 10, 5, 1 μM and 300 nM, SMRT2 signal subtracted, values are ka1 multiplied by 10^-4; for ka1 × 10^-4 / kd1 × 10^2: step 1 of two-state conformational change model; for ka1 × 10^-4 / Kd2 / kd1 × 10^2 / ka2 × 10^3 / kd2 × 10^3: HBS-P pH 7.4; for Kd2: dissociation constant of step 2, calculated from rate constants, two-state conformational change model; for kd1 × 10^2: dissociation rate, values are kd1 multiplied by 10^2; for ka2 × 10^3: forward rate, values are ka2 multiplied by 10^3; for ka2 × 10^3 / kd2 × 10^3: step 2 of two-state conformational change model; for kd2 × 10^3: reverse rate, values are kd2 multiplied by 10^3
T1 construct: chimp AR LBD (residues 663–919—human numbering); GST (N, cleaved yes); made in house; host or cells: E. coli BL21 (DE3) STAR
T1 sequence (O97775 655-911 limits assumed): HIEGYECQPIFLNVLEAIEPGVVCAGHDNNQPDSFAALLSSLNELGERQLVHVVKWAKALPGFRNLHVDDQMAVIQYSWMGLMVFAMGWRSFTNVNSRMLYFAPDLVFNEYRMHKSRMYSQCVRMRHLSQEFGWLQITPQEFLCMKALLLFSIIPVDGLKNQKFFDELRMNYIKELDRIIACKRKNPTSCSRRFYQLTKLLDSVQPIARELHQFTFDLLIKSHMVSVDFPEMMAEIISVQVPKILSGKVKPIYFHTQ
Description: (§1) Expression and purification of the AR LBD for crystallization were performed essentially as described ([Matias et al. 2000]). […] Induction was carried out with 30 μM IPTG at 17 °C for 16–18 h. E. coli cells were lysed in buffer (10 mM Tris, [pH 8.0], 150 mM NaCl, 10% glycerol, 1 mM TCEP, 0.2 mM PMSF) supplemented with 0.5 μg/ml lysozyme, 5 U/ml benzonase, 0.5% CHAPS, and 10 μM DHT. All buffers for further purification steps contained 1 μM DHT. Soluble cell lysate was adsorbed to Glutathione Sepharose 4 Fast Flow resin (Amersham Biosciences), washed with buffer containing 0.1% n-octyl β-glucoside, and eluted with 15 mM glutathione. After cleavage of the GST moiety with thrombin, final purification of the AR LBD was carried out using a HiTrap SP cation exchange column (Amersham Biosciences). Eluted AR LBD was dialyzed overnight at 4 °C against buffer containing 50 mM HEPES (pH 7.2), 10% glycerol, 0.2 mM TCEP, 20 μM DHT, 150 mM Li2SO4, and 0.1% n-octyl β-glucoside, then concentrated to greater than 4 mg/ml for crystallization.
Affinities of peptides to the AR LBD were determined with a Biacore (Piscataway, New Jersey, United States) 2000 instrument. A peptide derived from silencing mediator for RXR and TR 2 (SMRT2) served as a negative control. 1 mM peptide stock solutions in DMSO were diluted into HBS-P buffer (10 mM HEPES [pH 7.4], 150 mM NaCl, 0.005% Surfactant P20) to generate 10 μM working solutions. HBS-P buffer was flowed through the cells to achieve a stable baseline prior to immobilization of the biotinylated peptides. To achieve the binding of approximately 250 RU of peptides to individual cells, working solutions of peptides were diluted to 100 nM in HBS-P buffer. Unbound streptavidin sites were blocked by injection of a 1 mM biotin solution at a rate of 10 μl/min.
Purified AR LBD was diluted into HBS-P buffer to a concentration of 10 μM and injected into all four Flowcells using the Kinject protocol at a flow rate of 10 μl/min (contact time 360 s, dissociation time 360 s). Following the dissociation phase, the surface of the chip was regenerated to remove residual AR LBD by QuickInject of buffer containing 10 mM HEPES and 50% ethylene glycol (pH 11). Following the establishment of a stable baseline, the same procedure was repeated using a series of AR LBD dilutions (5 μM, 1 μM, and 300 nM) in an iterative manner. Analysis of the data was performed using BIAevaluation 3.0 software (Biacore). The SMRT2 signals were subtracted as background from the three remaining peptide signals. Data were best fit using the two-state conformational change model ([Warnmark et al. 2001], [2002]).

AR LBD [2] = target: T1, AR LBD; test: X-ray crystal structures of AR LBD-peptide complexes, buried surface area; format: chimp (100% identity to the human form in protein sequence); conditions: calculated with CNS from crystal structure; for Buried surface area, +1: +1 residue; for Buried surface area, +1 / Buried surface area, +4 / Buried surface area, +5: side chain atoms only; for Buried surface area, +4: +4 residue; for Buried surface area, +5: +5 residue; for Buried surface area, Total: AR LBD-peptide complex, DHT-bound
Description: as §1
Purified, concentrated AR LBD was combined with 3x to 6x molar excess of peptide and incubated 1 h at room temperature before crystallization trials. Complexes were crystallized using the hanging drop vapor diffusion method. Protein–peptide solution was combined in a 1:1 ratio with a well solution consisting of 0.6–0.8 M sodium citrate and 100 mM Tris or HEPES buffer (pH 7–8). Crystals typically appeared after 1–2 d, with maximal size attained within 2 wk. For data collection, crystals were swiped into a cryo-protectant solution consisting of well solution plus 10% glycerol before flash freezing in liquid nitrogen. The addition of ethylene glycol to a well concentration of 10%–20% was later found to both improve crystal quality and enable the freezing of crystals directly out of the drop.
Datasets were collected at 100K at the Advanced Light Source (Lawrence Berkeley Laboratory, Berkeley, California, United States), beamline 8.3.1, with either a ADSC Quantum 315 or Quantum 210 CCD detector. Data were processed using Denzo and Scalepack ([Otwinowski and Minor 1997]). Molecular replacement searches were performed with rotation and translation functions from CNS ([Brunger et al. 1998]). Initial searches for AR–FxxLF were performed using the structure of AR–R1881 (PDB: 1E3G) with R1881 omitted from the search model. Subsequent searches for all other complexes were performed using the refined LBD structure from the AR–FxxLF complex. To minimize the possibility of model bias, FxxLF peptide and DHT were omitted from all molecular replacement searches. Protein models were built by iterative rounds of simulated annealing, conjugate gradient minimization, and individual B-factor refinement in CNS followed by manual rebuilding in Quanta 2000 (Accelrys, San Diego, California, United States) using σA-weighted 2F o − F c, F o − F c, and simulated annealing composite omit maps. Superposition of structures was performed with LSQMAN ([Kleywegt 1996]). Buried surface area calculations were performed with CNS. All figures were generated with PyMOL ([DeLano 2002]). Coordinates and structure factors for all complexes have been deposited in the Protein Data Bank.

AR LBD [3] = target: T1, AR LBD; test: FRET-based assay of interaction between synthetic peptide and purified AR LBD; format: binding, chimp (100% identity to the human form in protein sequence); conditions: in vitro; excitation 320 nm, emission 625 and 665 nm; streptavidin-cryptate / streptavidin-XL665; unpublished data
Description: Synthetic peptides corresponding to the deduced amino acid sequences from receptor-specific phage were tested for their ability to interact with purified AR LBD using a FRET–based assay format. […] Flourophor conjugates were prepared by incubating either biotinylated peptides with streptavidin-cryptate (Cis Bio International, Bagnols Sur Ceze Cedex, France), or biotinylated AR LBD with streptavidin-XL665 (Cis Bio). Interaction between peptide and AR LBD was monitored by the ratio of energy transfer by excitation at 320 nm and emission at 625 nm and 665 nm.

ka1 × 10^-4 (AR LBD [1])	Kd2 (AR LBD [1])	kd1 × 10^2 (AR LBD [1])	ka2 × 10^3 (AR LBD [1])	kd2 × 10^3 (AR LBD [1])	Buried surface area, +1 (AR LBD [2])	Buried surface area, +4 (AR LBD [2])	Buried surface area, +5 (AR LBD [2])	Buried surface area, Total (AR LBD [2])	affinity relative to FxxLF (AR LBD [1]; comparison with FxxLF)	affinity for AR (AR LBD [1])	fold weaker affinity than FxxLF (AR LBD [1]; Kd ratio relative to FxxLF)	affinity relative to tightest binding p160-derived LxxLL motif, NR box 3 of TIF2 (AR LBD [1]; compared with earlier value for TIF2 NR box 3 (He and Wilson 2003))	Structure (SMILES)	binding to AR in FRET-based screens (AR LBD [3])
5.2±1.0 M^-2s^-1	2.6±1.0	2.3±0.03 M^-1s^-1	1.3±0.5 M^--1s^-1	3.5±0.06 M^-1s^-1	305 Å^2	189 Å^2	276 Å^2	1012 Å^2					CC(C)C[C@H](NC(=O)[C@H](CO)NC(=O)[C@H](CCC(=O)O)NC(=O)[C@H](Cc1ccccc1)NC(=O)[C@H](CCCNC(=N)N)NC(=O)[C@H](CO)NC(=O)[C@@H](N)CO)C(=O)N[C@@H](Cc1ccccc1)C(=O)N[C@@H](C)C(=O)NCC(=O)N[C@@H](CCC(=O)O)C(=O)N[C@@H](CCCCN)C(=O)N[C@@H](CCC(=O)O)C(=O)N[C@@H](CO)C(=O)N[C@@H](CCCNC(=N)N)C(=O)N[C@@H](CO)C(=O)NCC(=O)N[C@@H](CO)C(=O)NCC(=O)N[C@@H](CCCCNC(=O)CCCC[C@@H]1SC[C@@H]2NC(=O)N[C@@H]21)C(=O)O [FxxLF] (H-SSRFESLFAGEKESRSGSGK(Biotin)-OH; N-terminus and C-terminus assumed)	
5.9±1.5 M^-2s^-1	1.6±0.2	3.4±0.04 M^-1s^-1	3.6±0.3 M^--1s^-1	5.6±0.05 M^-1s^-1	315 Å^2	187 Å^2	313 Å^2	937 Å^2	slightly better than FxxLF				CC(C)C[C@H](NC(=O)[C@H](C)NC(=O)[C@H](C)NC(=O)[C@H](Cc1ccccc1)NC(=O)[C@H](CCCCN)NC(=O)[C@H](CO)NC(=O)[C@@H](N)CO)C(=O)N[C@@H](Cc1c[nH]c2ccccc12)C(=O)N[C@@H](CC(=O)O)C(=O)N1CCC[C@H]1C(=O)N1CCC[C@H]1C(=O)N[C@@H](CCCCN)C(=O)N[C@@H](CC(C)C)C(=O)N[C@@H](CO)C(=O)N[C@@H](CCCNC(=N)N)C(=O)N[C@@H](CO)C(=O)NCC(=O)N[C@@H](CO)C(=O)NCC(=O)N[C@@H](CCCCNC(=O)CCCC[C@@H]1SC[C@@H]2NC(=O)N[C@@H]21)C(=O)O [FxxLW] (H-SSKFAALWDPPKLSRSGSGK(Biotin)-OH; N-terminus and C-terminus assumed)	
6.2±4.3 M^-2s^-1	1.6±0.2	7.0±0.17 M^-1s^-1	3.2±0.4 M^--1s^-1	5.0±0.04 M^-1s^-1	271 Å^2	193 Å^2	241 Å^2	984 Å^2		moderate affinity	less than 2 -fold	more than three times stronger	CC(C)C[C@H](NC(=O)CNC(=O)[C@H](CCCNC(=N)N)NC(=O)[C@H](CO)NC(=O)[C@@H](N)CO)C(=O)N[C@@H](CC(C)C)C(=O)N[C@@H](Cc1c[nH]c2ccccc12)C(=O)N[C@@H](CC(=O)O)C(=O)N[C@@H](CC(C)C)C(=O)N[C@@H](CC(C)C)C(=O)N[C@H](C(=O)N[C@@H](CCCCN)C(=O)N[C@@H](CC(=O)O)C(=O)N[C@@H](CO)C(=O)N[C@@H](CCCNC(=N)N)C(=O)N[C@@H](CO)C(=O)NCC(=O)N[C@@H](CO)C(=O)NCC(=O)N[C@@H](CCCCNC(=O)CCCC[C@@H]1SC[C@@H]2NC(=O)N[C@@H]21)C(=O)O)[C@@H](C)O [LxxLL] (H-SSRGLLWDLLTKDSRSGSGK(Biotin)-OH; N-terminus and C-terminus assumed)	demonstrated to bind AR in FRET-based screens in vitro
